Assay results reported in patent publication EP4467137A1, “TREATMENT OF FRONTOTEMPORAL DEMENTIA OR FRONTOTEMPORAL LOBAR DEMENTIA” (Universidad Autónoma de Madrid, priority 2023, dated 2024).

Assays:
[1] = test system: proinflammatory cytokines; assay: LPS in vivo model: brain cytokine mRNAs by qRT-PCR; design: species or system mouse; conditions: 20 mg·kg^-1 i.p. daily for 4 days; 4 h and 24 h after LPS 0.5 mg·kg^-1 i.p.
Description: • Figure 1. Compound 1 reduces the inflammatory response against LPS in vitro. (A) Nitric oxide (NO) production in BV2 cells detected by DAF 24 h after LPS exposure and normalized by cell viability measured by MTT (n = 9). (B) qRT-PCR of TNFα (n = 9) in BV2 cells after 24 h LPS exposure. Sulforaphane (Sfn) was used as a positive control. […] Compound 1 decreases the inflammatory process 4 and 24 hours after LPS administration in vivo. Compound 1 (20 mg·kg^-1) daily was injected i.p. four days before the i.p. LPS (0.5 mg·kg^-1) administration. […] Compound 1 ameliorates the resolution of the inflammatory process triggered by LPS. […] (B) Locomotion activity measured by line crossings of an imaginary grid. […] Compound 1 reduced tau seeding in HEK-293 tau FRET biosensor measured by flow cytometer (C). […] Representative images of hyperphosphorylated tau intensity measured by AT8 and AT180 antibodies in three different regions of the hippocampus (GD, CA3 and CA1) (n = 11-12). (B) Quantification AT8 intensity, normalized to CA3 intensity of Sham animals. (C) Quantification of AT180 intensity, normalized to CA3 intensity of Sham animals (n = 9-12). […] Quantification of sarkosyl soluble (n = 10) (C) and insoluble species (D) using AT8 antibody (n = 10). Quantification of sarkosyl soluble (n = 10) (E) and insoluble species (F) using AT180 antibody (n = 10). […]

[2] = LPS in vivo model: sickness behaviour (body weight, locomotion, novel object recognition); design: species or system mouse; conditions: 20 mg·kg^-1 i.p.
Description: The LPS in vivo model was induced, sickness behaviour evaluated (locomotion test and novel object recognition test) and cytokines measured by qPCR as described by [Fernández-Mendivil, Cristina et al. "Protective role of microglial HO-1 blockade in aging: Implication of iron metabolism." Redox biology vol. 38 (2021): 101789. doi:10.1016/j.redox.2020.101789]. The panel of mouse cytokines, chemokines, and growth factors were measured by Luminex xMAP technology for multiplexed quantification at Evetechnologies (https://www.evetechnologies.com/)
Example 2.3.1. Treatment with Compound 1 reduces LPS-induced cytokine expression and release in mouse brain. Mice were treated i.p. with a daily dose of 20 mg·kg^-1 of Compound 1 for 4 consecutive days. On the last day, LPS (0.5 mg·kg^-1) was injected i.p. one h after the compound. Thereafter, behavioural, and biochemical outcomes were analysed at different time points.
Example 2.3.3. Treatment with Compound 1 reduces LPS-induced sickness behaviour. Peripheral administration of LPS produces neuroinflammation and induces a "sickness behaviour" in mice that is characterized by body weight loss, reduction of the locomotor activity and a cognitive decline.

Structure (SMILES): COc1ccc2c(c1)CC(c1c[nH]c3ccc(OC)cc13)N2 (centres unmarked) [Compound 1, 5-Methoxy-3-(5-methoxyindolin-2-yl)-1H-indole]
- IL-1β mRNA in brain [1]: reduced
- TNFα mRNA in brain [1]: reduced
- Locomotion, line crossings of an imaginary grid ([2]; 4 and 8 h after LPS exposure, values similar to saline animals): improved
- body weight loss ([2]; compared to LPS-vehicle treated animals): less reduction of the body weight loss
- cognitive decline (NOR test, discrimination index) ([2]; compared to vehicle-LPS treated animals): did not show cognitive decline
